In PubChem BioAssay (NCI):
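Step 1: Grow cells in 96-well plates. Step 2: Expose to compound for 48 hours at 5 concentrations. Step 3: Interpolate endpoints linearly; if unreached, use highest concentration. TGI is the concentration that stops growth completely.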

Tests used:
Test in all cases: NCI-60 cell line screen, 48 h
[1] = test system: OVCAR-4 ovarian
[2] = test system: UO-31 renal
[3] = test system: SR leukemia
[4] = test system: OVCAR-8 ovarian
[5] = test system: SK-OV-3 ovarian
[6] = test system: HOP-62 NSCLC
[7] = test system: SK-MEL-5 melanoma
[8] = test system: M14 melanoma
[9] = test system: MALME-3M melanoma
[10] = test system: A549 NSCLC
[11] = test system: 786-0 renal
[12] = test system: SNB-19 CNS
[13] = test system: CAKI-1 renal
[14] = test system: HS 578T breast
[15] = test system: MDA-N
[16] = test system: KM12 colon
[17] = test system: CCRF-CEM leukemia
[18] = test system: EKVX NSCLC
[19] = test system: NCI-H226 lung
[20] = test system: SF-268 CNS
[21] = test system: HCC-2998 colon
[22] = test system: SF-539 CNS
[23] = test system: MCF7 breast
[24] = test system: A498 renal
[25] = test system: SN12C renal
[26] = test system: HL-60(TB) leukemia
[27] = test system: UACC-62 melanoma
[28] = test system: PC-3 prostate
[29] = test system: OVCAR-5 ovarian
[30] = test system: HCT-116 colon
[31] = test system: MDA-MB-435
[32] = test system: COLO 205 colon
[33] = test system: MOLT-4 leukemia
[34] = test system: TK-10 renal
[35] = test system: IGROV1 ovarian
[36] = test system: DU-145 prostate
[37] = test system: NCI-H460 lung
[38] = test system: HT29 colon
[39] = test system: NCI-H522 lung
[40] = test system: SW-620 colon
[41] = test system: MDA-MB-231 breast
[42] = test system: HOP-92 NSCLC
[43] = test system: RPMI-8226 leukemia
[44] = test system: OVCAR-3 ovarian
[45] = test system: SK-MEL-28 melanoma
[46] = test system: RXF 393 renal
[47] = test system: LOX IMVI melanoma
[48] = test system: NCI-H23 lung
[49] = test system: UACC-257 melanoma
[50] = test system: SF-295 CNS
[51] = test system: T-47D breast
[52] = test system: U251 CNS
[53] = test system: HCT-15 colon
[54] = test system: BT-549 breast
[55] = test system: K-562 leukemia
[56] = test system: ACHN renal
[57] = test system: SNB-75 CNS
[58] = test system: NCI/ADR-RES ovarian
[59] = test system: SK-MEL-2 melanoma

Compound: CSc1ccc(NC(=O)C2CCCCC2C(=O)O)cc1 (stereo not drawn)
- TGI [1]: > 100 µM
- TGI [2]: > 100 µM
- TGI [3]: > 100 µM
- TGI [4]: > 100 µM
- TGI [5]: > 100 µM
- TGI [6]: > 100 µM
- TGI [7]: > 100 µM
- TGI [8]: > 100 µM
- TGI [9]: > 100 µM
- TGI [10]: > 100 µM
- TGI [11]: > 100 µM
- TGI [12]: > 100 µM
- TGI [13]: > 100 µM
- TGI [14]: > 100 µM
- TGI [15]: > 100 µM
- TGI [16]: > 100 µM
- TGI [17]: > 100 µM
- TGI [18]: > 100 µM
- TGI [19]: > 100 µM
- TGI [20]: > 100 µM
- TGI [21]: > 100 µM
- TGI [22]: > 100 µM
- TGI [23]: > 100 µM
- TGI [24]: > 100 µM
- TGI [25]: > 100 µM
- TGI [26]: > 100 µM
- TGI [27]: > 100 µM
- TGI [28]: > 100 µM
- TGI [29]: > 100 µM
- TGI [30]: > 100 µM
- TGI [31]: > 100 µM
- TGI [32]: > 100 µM
- TGI [33]: > 100 µM
- TGI [34]: > 100 µM
- TGI [35]: > 100 µM
- TGI [36]: > 100 µM
- TGI [37]: > 100 µM
- TGI [38]: > 100 µM
- TGI [39]: > 100 µM
- TGI [40]: > 100 µM
- TGI [41]: > 100 µM
- TGI [42]: > 100 µM
- TGI [43]: > 100 µM
- TGI [44]: > 100 µM
- TGI [45]: > 100 µM
- TGI [46]: > 100 µM
- TGI [47]: > 100 µM
- TGI [48]: > 100 µM
- TGI [49]: > 100 µM
- TGI [50]: > 100 µM
- TGI [51]: > 100 µM
- TGI [52]: > 100 µM
- TGI [53]: > 100 µM
- TGI [54]: > 100 µM
- TGI [55]: > 100 µM
- TGI [56]: > 100 µM
- TGI [57]: > 100 µM
- TGI [58]: > 100 µM
- TGI [59]: > 100 µM

Compound: COc1ccc2nc3n[nH]c(N)c3nc2c1
- TGI [1]: > 87.3 µM
- TGI [2]: 55 µM
- TGI [3]: > 78 µM
- TGI [4]: 32.5 µM
- TGI [5]: > 64.9 µM
- TGI [6]: > 76.5 µM
- TGI [7]: > 29.1 µM
- TGI [8]: 27.6 µM
- TGI [9]: 69.6 µM
- TGI [10]: > 26.5 µM
- TGI [11]: > 65.9 µM
- TGI [12]: > 100 µM
- TGI [13]: > 90.6 µM
- TGI [14]: 23.8 µM
- TGI [15]: 44.4 µM
- TGI [16]: > 93 µM
- TGI [17]: > 25.7 µM
- TGI [18]: 45.6 µM
- TGI [19]: 24.8 µM
- TGI [20]: 23.8 µM
- TGI [21]: > 74 µM
- TGI [22]: 12 µM
- TGI [23]: > 26.7 µM
- TGI [24]: > 62.3 µM
- TGI [25]: > 69.1 µM
- TGI [26]: 4.48 µM
- TGI [27]: 19.8 µM
- TGI [28]: 36.9 µM
- TGI [29]: > 87.2 µM
- TGI [30]: > 32.8 µM
- TGI [31]: 72.3 µM
- TGI [32]: 18.9 µM
- TGI [33]: > 100 µM
- TGI [34]: > 75.7 µM
- TGI [35]: 17.1 µM
- TGI [36]: > 49.2 µM
- TGI [37]: > 84.2 µM
- TGI [38]: 36.9 µM
- TGI [39]: 27.3 µM
- TGI [40]: 45.9 µM
- TGI [41]: 64.4 µM
- TGI [42]: 48.6 µM
- TGI [43]: 19 µM
- TGI [44]: 38.3 µM
- TGI [45]: 42.2 µM
- TGI [46]: 5.91 µM
- TGI [47]: 20.4 µM
- TGI [48]: 15.5 µM
- TGI [49]: 90.4 µM
- TGI [50]: > 76.7 µM
- TGI [51]: 46.5 µM
- TGI [52]: > 56.3 µM
- TGI [53]: > 93.7 µM
- TGI [54]: 62.9 µM
- TGI [55]: > 100 µM
- TGI [56]: > 23.7 µM
- TGI [57]: 21.7 µM
- TGI [58]: 33.8 µM
- TGI [59]: 17.5 µM
